In brackets after ≈: the same amount, converted by molar mass.
Experiments:
Assay type in all cases: functional
[1] = system: Mycobacterium tuberculosis; assay: Antitubercular activity against Mycobacterium tuberculosis H37Rv ATCC 27294 after 5 days by micro plate alamar blue assay; details: H37Rv ATCC 27294, 120 h
[2] = system: Mycobacterium tuberculosis; assay: Antitubercular activity against Mycobacterium tuberculosis H37Rv ATCC 27294 assessed as ratio of compound or streptomycin MIC to MIC for compound in presence of streptomycin after 5 days by micro plate alamar blue assay
[3] = system: Mycobacterium tuberculosis; assay: Antitubercular activity against Mycobacterium tuberculosis H37Rv ATCC 27294 assessed as ratio of compound or ciprofloxacin MIC to MIC for compound in presence of ciprofloxacin after 5 days by micro plate alamar blue assay
[4] = system: Mycobacterium tuberculosis; assay: Antitubercular activity against Mycobacterium tuberculosis H37Rv ATCC 27294 assessed as ratio of compound or pyrazinamide MIC to MIC for compound in presence of pyrazinamide after 5 days by micro plate alamar blue assay
[5] = system: Mycobacterium tuberculosis; assay: Antitubercular activity against Mycobacterium tuberculosis H37Rv ATCC 27294 assessed as ratio of compound or rifampicin MIC to MIC for compound in presence of rifampicin after 5 days by micro plate alamar blue assay

Structure (SMILES) | MIC [1] | also measured
COc1cc(CCC(=O)CC(C)=O)cc(OC)c1O | 12.5 µg/mL (≈ 46.9 µM) | 
COc1cc(/C=C/C(=O)CC(C)=O)cc(OC)c1OC | 50 µg/mL (≈ 180 µM) | 
COc1cc(/C=C/C(=O)CC(C)=O)ccc1O | 25 µg/mL (≈ 107 µM) | 
NNC(=O)c1ccncc1 [ISONIAZID] | 0.8 µg/mL (≈ 5.83 µM) | 
COc1cc(CCC(=O)CC(C)=O)cc(OC)c1OC(C)=O | 100 µg/mL (≈ 324 µM) | 
COc1ccc(CCC(=O)CC(C)=O)cc1OC | 100 µg/mL (≈ 400 µM) | 
COc1cc(/C=C/C(=O)CC(C)=O)cc(OC)c1OC(C)=O | > 100 µg/mL | 
O=C(O)c1cn(C2CC2)c2cc(N3CCNCC3)c(F)cc2c1=O [CIPROFLOXACIN] | 3.12 µg/mL (≈ 9.43 µM) | 
COc1cc(/C=C/C(=O)CC(=O)/C=C/c2ccc(O)c(OC)c2)ccc1O [CURCUMIN] | > 100 µg/mL | 
COc1ccc(/C=C/C(=O)CC(C)=O)c(OC)c1OC | 100 µg/mL (≈ 359 µM) | 
COc1ccc(/C=C/C(=O)CC(C)=O)cc1OC | 100 µg/mL (≈ 403 µM) | 
CC(=O)CC(=O)/C=C/c1ccc(O)cc1 | 25 µg/mL (≈ 122 µM) | Ratio [2]: 0.125; Ratio [3]: 0.062; Ratio [4]: 0.25; Ratio [5]: 0.062
COc1cc(CCC(=O)CC(C)=O)ccc1O | 6.25 µg/mL (≈ 26.5 µM) | 
NC(=O)c1cnccn1 [PYRAZINAMIDE] | 3.12 µg/mL (≈ 25.4 µM) | 
CC(=O)CC(=O)/C=C/c1ccc(O)c(O)c1 | 25 µg/mL (≈ 114 µM) | 
COc1ccc(CCC(=O)CC(C)=O)c(OC)c1OC | > 100 µg/mL | 
C=C/C(C)=C/[C@@]1(C)SC(=O)C(C)=C1O [THIOLACTOMYCIN] | 12.5 µg/mL (≈ 59.4 µM) | 
CC(=O)CC(=O)/C=C/c1ccc(OC(C)=O)cc1 | 100 µg/mL (≈ 406 µM) | 
COc1cc(/C=C/C(=O)CC(C)=O)cc(OC)c1O | 50 µg/mL (≈ 189 µM) | 
COc1ccc(CCC(=O)CC(C)=O)cc1 | 25 µg/mL (≈ 113 µM) | 
CN[C@@H]1[C@H](O[C@H]2[C@H](O[C@H]3[C@H](O)[C@@H](O)[C@H](N=C(N)N)[C@@H](O)[C@@H]3N=C(N)N)O[C@@H](C)[C@]2(O)C=O)O[C@@H](CO)[C@H](O)[C@H]1O [STREPTOMYCIN] | 6.25 µg/mL (≈ 10.7 µM) | 
CO[C@H]1/C=C/O[C@@]2(C)Oc3c(C)c(O)c4c(O)c(c(/C=N/N5CCN(C)CC5)c(O)c4c3C2=O)NC(=O)/C(C)=C\C=C\[C@H](C)[C@H](O)[C@@H](C)[C@@H](O)[C@@H](C)[C@H](OC(C)=O)[C@@H]1C [RIFAMPIN] | 1.6 µg/mL (≈ 1.94 µM) | 
CC(=O)CC(=O)CCc1ccc(O)c(O)c1 | 3.12 µg/mL (≈ 14.1 µM) | 
CC[C@@H](CO)NCCN[C@@H](CC)CO [ETHAMBUTOL] | 1.6 µg/mL (≈ 7.83 µM) | 
COc1cc(/C=C/C(=O)CC(C)=O)ccc1OC(C)=O | > 100 µg/mL | 
COc1cc(OC)c(/C=C/C(=O)CC(C)=O)c(OC)c1 | 100 µg/mL (≈ 359 µM) | 
CC(=O)CC(=O)CCc1ccc(O)cc1 | 1.6 µg/mL (≈ 7.76 µM) | Ratio [2]: 0.25; Ratio [3]: 0.031; Ratio [4]: 0.25; Ratio [5]: 0.062
COc1ccc(/C=C/C(=O)CC(C)=O)cc1 | 50 µg/mL (≈ 229 µM) | 
